{"source": "patent US20260207649A1", "about": "“LSD1 INHIBITOR AND PRMT6 INHIBITOR FOR USE IN THE TREATMENT OF A DISEASE ASSOCIATED WITH GAIN-OF-FUNCTION OF ANDROGEN RECEPTOR (AR) AND/OR WITH OVEREXPRESSION OF AN AR COACTIVATOR” (FONDAZIONE TELETHON ETS(30%), priority 2022, published 2026)", "test_system": "PRMT6", "assay": "Lentiviral shRNA knock-down tested in motor-neuron cell lines", "type": "cell-based", "settings": "lentiviral transduction of motor-neuron cell lines", "protocol": "Transgenes to express shRNA against PRMT6 (shPRMT6 #1, SEQ ID NO: 232 and shPRMT6 #2, SEQ ID NO: 233) and the corresponding scramble were cloned into lentiviral constructs (pLKO.1-puro).\nHEK293T cells were transfected by calcium phosphate with lentiviral vectors together with pCMV-dR8.91 (Delta 8.9) plasmids containing gag, pol, and rev genes and VSV-G envelope plasmid. At 16 hours post-transfection, medium was replaced with fresh medium, and 24 hours later it was collected, centrifuged at 1000×g for 10 minutes (to pellet and thus remove any cellular debris), filtered through 0.45-μm pores, and stored at −80° C. in aliquots. To quantify viruses, 10 μL of viral particles were lysed for 10 minutes at room temperature by adding an equal volume of 2× lysis buffer [0.25% Triton X-100, 50 mM KCl, 100 mM Tris-HCl pH 7.4, 40% glycerol, and 0.8 U/μL RNase inhibitor (RiboLock, Fermentas)]. Lysates were added to a single-step RT-PCR assay with 3.5 nM MS2 RNA (Roche) as template, 500 nM of each primer and hot-start Taq (Truestart Hotstart Taq, Fermentas), all in 20 mM Tris-Cl pH 8.3, 5 mM (NH4)2SO4, 20 mM KCl, 5 mM MgCl2, 0.1 mg/ml BSA, 1/20,000 SYBR Green I (Invitrogen, #S7563), and 200 µM dNTPs. […]"}
{"substance": "shPRMT6 #1: shRNA against PRMT6 in lentiviral construct pLKO.1-puro, caccggcauucugagcaucuu (CACCGGCAUUCUGAGCAUCUU)", "values": [{"measurement": "knock-down efficiency", "value": "most efficient knock-down"}]}
